Data taken from patent US8354433B2, “Anti-inflammatory agents as virostatic compounds” (4SC AG, priority 2009, dated 2013).
Read-outs that look alike come from different tables or passages of the source.

What was measured:
[1] = molecular target: dihydroorotate dehydrogenase (DHODH) (Homo sapiens, UniProt Q02127); experiment: DHODH inhibition, in vitro assay; assay type: biochemical
human PBMCs = experiment: MTS cytotoxicity in human PBMCs; conditions: seven days
DENV Type 2 (New Guinea) = experiment: microbe, parasite or virus in culture; assay type: cell-based; conditions: Dengue virus, Vero C1008, read-out: Antiviral Activity EC50
[2] = tested on: HCV subgenomic replicon of genotype 1b; experiment: microbe, parasite or virus in culture; assay type: cell-based; conditions: Hepatitis C virus, 24 h, read-out: Antiviral Activity EC50/nM
YFV Strain 17D = experiment: microbe, parasite or virus in culture; assay type: cell-based; conditions: Yellow fever virus, Vero, read-out: Antiviral Activity EC50
RSV Strain Long = experiment: microbe, parasite or virus in culture; assay type: cell-based; conditions: human respiratory syncytial virus, Vero, read-out: Antiviral Activity EC50
[3] = tested on: ET cell line (luc-ubi-neo/ET), Huh7; experiment: CytoTox-1 cytotoxicity in ET cells; conditions: 24 h, cell unit μM
in vitro [4] = conditions: human
[5] = Cell viability in HepG2-2.2.15 cells (Cell Titer 96); assay type: cell-based; conditions: human, six days, read-out: TC50
Protocol: Anti-HBV assay was performed as described in Korba, B F and Milman, G., 1991 (A cell culture assay for compound which inhibits hepatitis B virus replication. Antiviral Res. 15: 217-228) and in Korba, B F and Gerin, J L., 1992 (Use of a standardized cell culture assay to assess activities of nucleoside analogs again hepatitis B virus replication. Antiviral Res. 19: 55-70) with modifications to measure extracellular HBV DNA copy with real-time PCR (qPCR/TaqMan). Briefly, HepG2-2.2.15 cells were plated in 96-well microtiter plates. Only the interior wells were utilized to reduce “edge effects” observed during cell culture; the exterior wells were filled with complete medium to help minimize sample evaporation. After 16-24 hours the confluent monolayer of HepG2-2.2.15 cells was washed and the medium was replaced with complete medium containing various concentrations of a test compound in triplicate. 3TC was used as the positive control, while media alone was added to cells as a negative control. Three days later the culture medium was replaced with fresh medium containing the appropriately diluted drug. Six days following the initial administration of the test compound, the cell culture supernatant was collected, treated with pronase and then used in a quantitative qPCR TaqMan assay. Antiviral activity was calculated from the reduction in HBV DNA levels (IC50). Cell Titer 96 ®AQueous One Solution Cell Proliferation kit (Promega, Madison, Wis.) was used to measure cell viability which is used to calculate toxicity (TC50). The therapeutic index (TI) was calculated as TC50/IC50

WNV Strain NY-99 = experiment: microbe, parasite or virus in culture; assay type: cell-based; conditions: West Nile virus, Vero, read-out: Antiviral Activity EC50
Influenza Virus (H7N7) = experiment: microbe, parasite or virus in culture; assay type: cell-based, avian influenza virus (Fowl Plaque Virus; conditions: unidentified influenza virus, H7N7, A549, 16 h; for inhibition at 30 µM: read-out: Antiviral Activity % Inhibition
HCMV AD 169-GFP = experiment: microbe, parasite or virus in culture; assay type: cell-based, Human Cytomegalovirus; conditions: Human betaherpesvirus 5, Fibroblast, 168 h, read-out: Antiviral Activity EC50
HIV-191US005 = experiment: Anti-HIV efficacy in fresh human PBMCs (RT activity and p24 ELISA); assay type: cell-based, HIV-1; conditions: Human immunodeficiency virus 1, PBMC, 168 h
HBV = experiment: Anti-HBV evaluation with HepG2 2.2.15 cells (extracellular HBV DNA, qPCR); assay type: cell-based; conditions: Hepatitis B virus, read-out: Antiviral Activity EC50
Protocol: Compounds were solubilized in DMSO in a concentration of 40 mM. (−)-2′-Desoxy-3′-thiacytidin (3TC) was used as the positive antiviral controls. The high-test concentrations were 10 μM for 4SC compounds and 1 μM for 3TC.
Briefly, HepG2-2.2.15 cells were plated in 96-well microtiter plates. Only the interior wells were utilized to reduce “edge effects” observed during cell culture; the exterior wells were filled with complete medium to help minimize sample evaporation. After 16-24 hours the confluent monolayer of HepG2-2.2.15 cells was washed and the medium was replaced with complete medium containing various concentrations of a test compound in triplicate. 3TC was used as the positive control, while media alone was added to cells as a negative control. Three days later the culture medium was replaced with fresh medium containing the appropriately diluted drug. Six days following the initial administration of the test compound, the cell culture supernatant was collected, treated with pronase and then used in a quantitative qPCR TaqMan assay. Antiviral activity was calculated from the reduction in HBV DNA levels (IC50). Cell Titer 96 ®AQueous One Solution Cell Proliferation kit (Promega, Madison, Wis.) was used to measure cell viability which is used to calculate toxicity (TC50). The therapeutic index (TI) was calculated as TC50/IC50

Ebola Virus = experiment: microbe, parasite or virus in culture; assay type: cell-based; conditions: Zaire ebolavirus, Vero, read-out: Antiviral Activity % Inhibition
in vitro [6] = conditions: African green monkey
in vitro [7] = conditions: African green monkey; remark: listed apart in the source
in vitro [8] = conditions: African green monkey; remark: listed apart in the source
Vero cells [9] = conditions: African green monkey
Vero cells [10] = conditions: African green monkey; remark: listed apart in the source
Vero cells [11] = conditions: African green monkey; remark: listed apart in the source
[12] = Table 3, read-out: DHODH IC50/nM
[13] = Table 4, read-out: DHODH IC50/nM
[14] = Table 5, read-out: DHODH IC50/nM
[15] = Table 6, read-out: DHODH IC50/nM
[16] = Table 7, read-out: DHODH IC50/nM
[17] = Table 8, read-out: DHODH IC50/nM
[18] = Endpoint RT, seven days, read-out: EC50/nM
[19] = Endpoint RT, seven days, read-out: EC90/nM
[20] = Endpoint p24, seven days, read-out: EC50/nM
[21] = Endpoint p24, seven days, read-out: EC90/nM
[22] = 144 h, HepG2 2.2.15 cells, HBV DNA, six days

Sequence of dihydroorotate dehydrogenase (DHODH) (Q02127 whole entry): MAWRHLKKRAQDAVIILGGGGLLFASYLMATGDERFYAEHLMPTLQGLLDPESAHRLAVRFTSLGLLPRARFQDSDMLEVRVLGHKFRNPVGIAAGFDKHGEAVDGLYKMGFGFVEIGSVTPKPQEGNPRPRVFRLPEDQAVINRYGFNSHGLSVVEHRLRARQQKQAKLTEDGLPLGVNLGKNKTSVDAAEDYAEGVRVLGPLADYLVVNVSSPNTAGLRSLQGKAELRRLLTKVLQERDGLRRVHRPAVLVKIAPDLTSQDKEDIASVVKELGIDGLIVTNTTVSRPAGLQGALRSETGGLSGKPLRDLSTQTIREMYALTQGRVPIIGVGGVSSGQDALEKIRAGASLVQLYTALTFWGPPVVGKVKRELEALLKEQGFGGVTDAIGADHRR

| SMILES | IC50 [1, 12] [nM] | IC50 [1, 13] [nM] | IC50 [1, 14] [nM] | IC50 [1, 15] [nM] | IC50 [1, 16] [nM] | IC50 [1, 17] [nM] | TC50/nM (human PBMCs) [nM] | EC50 (DENV Type 2 (New Guinea)) | EC50 [2] [nM] | EC50 (YFV Strain 17D) | EC50 (RSV Strain Long) | CC50 at 6 days [5] [nM] | EC50 (WNV Strain NY-99) | EC50 (Influenza Virus (H7N7)) [nM] | EC50 (HIV-191US005; [18]) [nM] | EC90 (HIV-191US005; [19]) [nM] | EC50 (HIV-191US005; [20]) [nM] | EC90 (HIV-191US005; [21]) [nM] | EC50 (HBV; [22]) [nM] | inhibition at 31.6 µM (Ebola Virus) [%] | also measured |
| --- | --- | --- | --- | --- | --- | --- | --- | --- | --- | --- | --- | --- | --- | --- | --- | --- | --- | --- | --- | --- | --- |
| O=C(Nc1c(F)c(F)c(-c2cccc(OC(F)(F)F)c2)c(F)c1F)c1ccsc1C(=O)O [Compound 1, 3-(2,3,5,6-Tetrafluoro-3′-trifluoromethoxy-biphenyl-4-ylcarbamoyl)-thiophene-2-carboxylic acid] | < 20 | < 20 | < 20 | < 20 | < 20 | < 20 | >100000 | 72 nM | 23 | 232 nM | 2100 nM | > 10000 | 735 nM | ~1500 | 120 | 300 | 170 | 300 | 4800 |  | IC50 [1]: < 20 nM; IC50 ([1]; Table 10, read-out: DHODH IC50/nM): < 20 nM; IC50 ([1]; read-out: DHODH IC50/nM, Table 2): < 20 nM; TC50 [3]: >100 µM; CC50 at 7 days (in vitro [4]): > 10000 nM; EC50 (HCMV AD 169-GFP): 780 nM |
| O=C(O)C1=C(C(=O)Nc2c(F)c(F)c(-c3cccc(OC(F)(F)F)c3)c(F)c2F)CCC1 [Compound 4, 2-(2,3,5,6-Tetrafluoro-3′-trifluoromethoxy-biphenyl-4-ylcarbamoyl)-cyclopent-1-enecarboxylic acid] |  |  | < 20 | < 20 |  | < 20 | 42400 | 67 nM | 80 | 681 nM | 2150 nM | > 10000 | > 10000 nM | ~3000 | 60 | 210 | 80 | 240 |  | > 90 | IC50 ([1]; DHODH IC50/nM, Table 1): < 20 nM; IC50 ([1]; DHODH IC50/nM, Table 2): < 20 nM; IC50 ([1]; DHODH IC50/nM, Table 3): < 20 nM; IC50 ([1]; DHODH IC50/nM, Table 4): < 20 nM; IC50 ([1]; DHODH IC50/nM, Table 7): < 20 nM; IC50 ([1]; Table 9, read-out: DHODH IC50/nM): < 20 nM; inhibition at 100 µM (Ebola Virus): > 98%; inhibition at 30 µM (Influenza Virus (H7N7)): > 90%; EC50 (HBV; HepG2 2.2.15, 144 h): > 10000 nM |
| COc1cccc(-c2ccc(NC(=O)C3=C(C(=O)O)CCC3)c(F)c2)c1 [Compound 6, 2-(3-Fluoro-3′-methoxy-biphenyl-4-ylcarbamoyl)-cyclopent-1-enecarboxylic acid] |  |  |  |  |  |  | >100000 |  | 4640 |  |  |  |  |  |  |  |  |  |  | 90 | inhibition at 100 µM (Ebola Virus): > 98%; inhibition at 30 µM (Influenza Virus (H7N7)): > 80%; EC50 (HIV-191US005; read-out: EC50/nM, Endpoint RT, seven days): 2190 nM; EC50 (HIV-191US005; read-out: EC50/nM, Endpoint p24, seven days): 1970 nM; EC90 (HIV-191US005; read-out: EC90/nM, Endpoint RT, seven days): 6110 nM; EC90 (HIV-191US005; read-out: EC90/nM, Endpoint p24, seven days): 6250 nM |
| O=C(Nc1c(F)cc(-c2cccc(OC(F)(F)F)c2)cc1F)c1ccsc1C(=O)O [Compound 17, 3-(3,5-difluoro-3′-(trifluoromethoxy)biphenyl-4-ylcarbamoyl)thiophene-2-carboxylic acid] | < 20 | < 20 |  | < 20 | < 20 | < 20 |  | > 10000 nM |  | 2250 nM | > 10000 nM | > 10000 | 6390 nM | ~3000 |  |  |  |  | 6400 |  | IC50 ([1]; DHODH IC50/nM, Table 5): < 20 nM; CC50 (in vitro [6]): > 10000 nM; CC50 (in vitro [7]): > 10000 nM; CC50 (in vitro [8]): > 10000 nM |
| NC(=O)c1ncn([C@@H]2O[C@H](CO)[C@@H](O)[C@H]2O)n1 [Ribavirin, reference compound] |  |  |  |  |  |  |  | 26.5 µg/mL |  | 7.33 µg/mL | 7.95 µg/mL |  | 22 µg/mL |  |  |  |  |  |  |  | TC50 (Vero cells [9]): >100 µg/mL; TC50 (Vero cells [10]): >100 µg/mL; TC50 (Vero cells [11]): >100 µg/mL |
